For assay [1], the system named is Klebsiella pneumoniae. As to the kind of experiment: Synergistic antibacterial activity against colistin-resistant Klebsiella pneumoniae SI-081R clinical isolate in presence of 2 ug/ml colistin by microdilution broth method (reference value: 256 ug/ml). In kind it is functional.
Assay [2] relates to Klebsiella pneumoniae. The assay can be described thus: Antibacterial activity against Klebsiella pneumoniae ATCC 13833 assessed as bacterial growth inhibition by agar diffusion assay. The format is functional. In general terms: A growth-free zone around the sample is the usual read-out of agar diffusion tests.
In assay [3] the test system is Escherichia coli. As to the kind of experiment: Potentiation of colistin-induced antibacterial activity against Escherichia coli CCUG assessed as fold reduction in colistin MIC in by microdilution broth method relative to colistin MIC. In kind it is functional.
For assay [4], the system named is Acinetobacter baumannii. The assay can be described thus: Antibacterial activity against Acinetobacter baumannii ATCC 17978 assessed as bacterial growth inhibition by agar diffusion assay. In kind it is functional.
In assay [5] the test system is Klebsiella pneumoniae. As to the kind of experiment: Synergistic antibacterial activity against colistin-resistant Klebsiella pneumoniae SI-004Bo clinical isolate in presence of 2 ug/ml colistin by microdilution broth method (reference value: 64 ug/ml). In kind it is functional.
Assay [6] has as its system Pseudomonas aeruginosa. As to the kind of experiment: Potentiation of colistin-induced antibacterial activity against Pseudomonas aeruginosa ATCC 27853 assessed as fold reduction in colistin MIC by microdilution broth method relative to colistin MIC. The format is functional.
In assay [7] the test system is Klebsiella pneumoniae. As to the kind of experiment: Potentiation of colistin-induced antibacterial activity against Klebsiella pneumoniae ATCC 13833 assessed as fold reduction in colistin MIC by microdilution broth method relative to colistin MIC. The format is functional. Background: Dilution methods test growth across graded concentrations, often in twofold steps.

Assay [8] relates to Acinetobacter baumannii. As to the kind of experiment: Potentiation of colistin-induced antibacterial activity against Acinetobacter baumannii ATCC 17978 assessed as fold reduction in colistin MIC by microdilution broth method relative to colistin MIC. In kind it is functional.
The subject of the next assay is HeLa. As to the kind of experiment: Cytotoxicity against human HeLa cells assessed as reduction in cell viability assay by CellTox-Green assay. In kind it is cell-based.
For assay [9], the system named is Pseudomonas aeruginosa. As to the kind of experiment: Antibacterial activity against Pseudomonas aeruginosa ATCC 27853 assessed as bacterial growth inhibition by agar diffusion assay. In kind it is functional.
In assay [10] the test system is Pseudomonas aeruginosa. As to the kind of experiment: Synergistic antibacterial activity against Pseudomonas aeruginosa ATCC 27853 in presence of 0.5 times MIC of colistin by microdilution broth method. The format is functional.
In assay [11] the test system is Escherichia coli. As to the kind of experiment: Synergistic antibacterial activity against Escherichia coli CCUG in presence of 0.5 times MIC of colistin by microdilution broth method. In kind it is functional.
Assay [12] has as its system Pseudomonas aeruginosa. As to the kind of experiment: Synergistic antibacterial activity against Pseudomonas aeruginosa ATCC 27853 assessed as fractional inhibitory concentration index in presence of colistin by Checkerboard assay. The format is functional.
In assay [13] the test system is Acinetobacter baumannii. As to the kind of experiment: Synergistic antibacterial activity against multidrug-resistant Acinetobacter baumannii N50 assessed as fractional inhibitory concentration index in presence of colistin by checkerboard assay. The format is functional.
The test system of assay [14] is Escherichia coli. As to the kind of experiment: Antibacterial activity against Escherichia coli CCUG assessed as bacterial growth inhibition by agar diffusion assay. The format is functional.
Assay [15] relates to Acinetobacter baumannii. As to the kind of experiment: Synergistic antibacterial activity against Acinetobacter baumannii ATCC 17978 in presence of 0.5 times MIC of colistin by microdilution broth method. The format is functional.
Assay [16] has as its system Acinetobacter baumannii. As to the kind of experiment: Synergistic antibacterial activity against Acinetobacter baumannii ATCC 17978 assessed as fractional inhibitory concentration index in presence of colistin by Checkerboard assay. In kind it is functional.
For assay [17], the system named is Klebsiella pneumoniae. As to the kind of experiment: Synergistic antibacterial activity against Klebsiella pneumoniae ATCC 13833 in presence of 0.5 times MIC of colistin by microdilution broth method. In kind it is functional.
For assay [18], the system named is Acinetobacter baumannii. The assay can be described thus: Synergistic antibacterial activity against multidrug-resistant Acinetobacter baumannii N50 in presence of 2 ug/ml colistin by microdilution broth method. The format is functional.
The next assay relates to Staphylococcus aureus. As to the kind of experiment: Antibacterial activity against Staphylococcus aureus ATCC 25923 assessed as bacterial growth inhibition by agar diffusion assay. In kind it is functional.
The test system of assay [19] is Escherichia coli. The assay can be described thus: Antibacterial activity against multidrug-resistant Escherichia coli Z25 clinical isolate assessed as bacterial growth inhibition by agar diffusion assay. In kind it is functional.
In assay [20] the test system is Pseudomonas aeruginosa. The assay can be described thus: Antibacterial activity against multidrug-resistant Pseudomonas aeruginosa VR-143/97 clinical isolate assessed as bacterial growth inhibition by agar diffusion assay. In kind it is functional.
Assay [21] concerns Acinetobacter baumannii. As to the kind of experiment: Antibacterial activity against Acinetobacter baumannii AC-54/97 clinical isolate assessed as bacterial growth inhibition by agar diffusion assay. The format is functional.
The test system of assay [22] is Enterobacter cloacae. As to the kind of experiment: Antibacterial activity against multidrug-resistant Enterobacter cloacae Z19 clinical isolate assessed as bacterial growth inhibition by agar diffusion assay. In kind it is functional.
Another assay deals with Streptococcus pyogenes. The assay can be described thus: Antibacterial activity against Streptococcus pyogenes ATCC 12344 assessed as bacterial growth inhibition by agar diffusion assay. The format is functional.
For the next assay, the system named is Enterococcus faecalis. The assay can be described thus: Antibacterial activity against Enterococcus faecalis ATCC 29212 assessed as bacterial growth inhibition by agar diffusion assay. The format is functional.
Assay [23] deals with Enterobacter cloacae. As to the kind of experiment: Antibacterial activity against multidrug-resistant Enterobacter cloacae VA 417/02 clinical isolate assessed as bacterial growth inhibition by agar diffusion assay. The format is functional.
For the next assay, the system named is Bacillus spizizenii. As to the kind of experiment: Antibacterial activity against Bacillus subtilis ATCC 6633 assessed as bacterial growth inhibition by agar diffusion assay. In kind it is functional.
Assay [24] has as its system Escherichia coli. As to the kind of experiment: Synergistic antibacterial activity against Escherichia coli CCUG assessed as fractional inhibitory concentration index in presence of colistin by Checkerboard assay. The format is functional.

Consider six compounds from ChEMBL document CHEMBL4613308, “Screen of Unfocused Libraries Identified Compounds with Direct or Synergistic Antibacterial Activity” (ACS Med Chem Lett, 2020).

Structures are written as SMILES. ≈ marks a conversion by molar mass, not a printed value. A value given as a limit tells only on which side of the number the result lay.

For the compound `CCCCCc1cc(O)cc(OCCCCCCCCCCC(=O)NCCO)c1`, the MIC – broadly, the lowest concentration that inhibits growth of the organism – in the assay on Klebsiella pneumoniae [1] was greater than 64 µg/mL; in the assay on Klebsiella pneumoniae [2] it was greater than 512 µg/mL; in the assay on Acinetobacter baumannii [4] it was greater than 512 µg/mL; with Klebsiella pneumoniae [5], greater than 64 µg/mL; with Pseudomonas aeruginosa [9] it was greater than 512 µg/mL; in the assay on Pseudomonas aeruginosa [10] it was 2 µg/mL. For the same compound, the MIC in the assay on Escherichia coli [11] was 8 µg/mL; in the assay on Escherichia coli [14] it was greater than 512 µg/mL; in the assay on Acinetobacter baumannii [15], 2 µg/mL; in the assay with Klebsiella pneumoniae [17] it was 4 µg/mL; with Acinetobacter baumannii [18], 2 µg/mL. Moreover, the log2FC came out at 6 with Escherichia coli [3], 8 in the assay on Pseudomonas aeruginosa [6], 7 in the assay on Klebsiella pneumoniae [7] and 8 in the assay with Acinetobacter baumannii [8]. The IC50 – broadly, the concentration that inhibits the measured activity by half – in the assay with HeLa stood at 25 µg/mL (≈ 61.3 µM). Further, the “fractional inhibitory concentration index (FICI)” value with Pseudomonas aeruginosa [12] came out at 0.41; with Acinetobacter baumannii [13], 0.062; with Acinetobacter baumannii [16], 0.29.

Take `CCCCCc1cc(O)cc(OCCCCCCCCCCCC(=O)NCCO)c1`: the MIC was greater than 64 µg/mL in the assay with Klebsiella pneumoniae [1]; greater than 512 µg/mL with Klebsiella pneumoniae [2]; greater than 512 µg/mL in the assay on Acinetobacter baumannii [4]; greater than 64 µg/mL with Klebsiella pneumoniae [5]; greater than 512 µg/mL in the assay on Pseudomonas aeruginosa [9]; 4 µg/mL in the assay with Pseudomonas aeruginosa [10]. The MIC is 8 µg/mL in the assay with Escherichia coli [11]; greater than 512 µg/mL in the assay on Escherichia coli [14]; 4 µg/mL in the assay with Acinetobacter baumannii [15]; 8 µg/mL in the assay on Klebsiella pneumoniae [17]; 4 µg/mL with Acinetobacter baumannii [18]. For the same compound, the log2FC came out at 6 with Escherichia coli [3], 7 in the assay on Pseudomonas aeruginosa [6], 6 in the assay with Klebsiella pneumoniae [7] and 7 in the assay on Acinetobacter baumannii [8]. The 50% inhibitory concentration (IC50) in the assay with HeLa is 18 µg/mL (≈ 42.7 µM). For the same compound, the results for the “fractional inhibitory concentration index (FICI)” value in the assay on Pseudomonas aeruginosa [12] and in the assay on Acinetobacter baumannii [16] were 0.41 and 0.31, respectively.

For the compound `CCOC(=O)c1cn(CC)c2cc(N)c(F)cc2c1=O`, the MIC with Staphylococcus aureus was 256 µg/mL (≈ 920 µM); with Escherichia coli [19], greater than 256 µg/mL; in the assay on Pseudomonas aeruginosa [20], greater than 256 µg/mL; in the assay with Klebsiella pneumoniae [2] it was 128 µg/mL (≈ 460 µM); in the assay with Acinetobacter baumannii [4], 256 µg/mL (≈ 920 µM); with Acinetobacter baumannii [21], greater than 256 µg/mL. Also, the MIC in the assay on Pseudomonas aeruginosa [9] is greater than 256 µg/mL; in the assay on Enterobacter cloacae [22], greater than 256 µg/mL; in the assay on Streptococcus pyogenes it was 64 µg/mL (≈ 230 µM); with Enterococcus faecalis it was 256 µg/mL (≈ 920 µM); in the assay with Enterobacter cloacae [23], greater than 256 µg/mL; with Escherichia coli [14], 32 µg/mL (≈ 115 µM). Moreover, the MIC in the assay with Bacillus spizizenii is 32 µg/mL (≈ 115 µM).

As for `COc1ccc(CNC(=O)c2c(O)c3cc(-c4cccnc4)ccc3n(CCCCO)c2=O)cc1`, the MIC is 4 µg/mL (≈ 8.45 µM) with Staphylococcus aureus; greater than 256 µg/mL in the assay with Escherichia coli [19]; greater than 256 µg/mL with Pseudomonas aeruginosa [20]; 32 µg/mL (≈ 67.6 µM) in the assay with Klebsiella pneumoniae [2]; 16 µg/mL (≈ 33.8 µM) with Acinetobacter baumannii [4]; greater than 256 µg/mL with Acinetobacter baumannii [21]. The MIC in the assay with Pseudomonas aeruginosa [9] was 256 µg/mL (≈ 541 µM); in the assay on Enterobacter cloacae [22], greater than 256 µg/mL; in the assay with Streptococcus pyogenes, 8 µg/mL (≈ 16.9 µM); with Enterococcus faecalis, 16 µg/mL (≈ 33.8 µM); with Enterobacter cloacae [23] it was 64 µg/mL (≈ 135 µM); with Escherichia coli [11], 32 µg/mL. For the same compound, the MIC turned out to be 64 µg/mL (≈ 135 µM) in the assay with Escherichia coli [14], 16 µg/mL with Acinetobacter baumannii [15], 0.12 µg/mL (≈ 0.253 µM) in the assay with Bacillus spizizenii and 64 µg/mL in the assay with Klebsiella pneumoniae [17]. Further, the “fractional inhibitory concentration index (FICI)” value in the assay with Escherichia coli [24] is 0.56. The log2FC is recorded as 4 with Escherichia coli [3], 3 in the assay with Klebsiella pneumoniae [7] and 5 with Acinetobacter baumannii [8].

Consider `CCCCCc1cc(OC)cc(OCCCCCCCC(=O)NCCO)c1`, for which the MIC in the assay on Klebsiella pneumoniae [1] was 18 µg/mL; in the assay with Klebsiella pneumoniae [2] it was greater than 512 µg/mL; in the assay with Acinetobacter baumannii [4], greater than 512 µg/mL; with Klebsiella pneumoniae [5], greater than 64 µg/mL; in the assay on Pseudomonas aeruginosa [9], greater than 512 µg/mL; in the assay with Escherichia coli [11], 4 µg/mL. For the same compound, the MIC with Escherichia coli [14] was greater than 512 µg/mL; in the assay on Acinetobacter baumannii [15] it was 4 µg/mL; in the assay on Klebsiella pneumoniae [17], 8 µg/mL; in the assay with Acinetobacter baumannii [18], 8 µg/mL. In addition, the results for the log2FC in the assay with Escherichia coli [3], in the assay on Klebsiella pneumoniae [7] and with Acinetobacter baumannii [8] were 7, 6 and 7, respectively. For the same compound, the IC50 in the assay with HeLa is greater than 20 µg/mL.

With `O=C(NCc1ccc2c(c1)OCO2)c1cnn(-c2ccccc2)c1-n1cccc1`, the MIC is greater than 64 µg/mL in the assay with Klebsiella pneumoniae [1]; greater than 512 µg/mL with Klebsiella pneumoniae [2]; greater than 512 µg/mL in the assay on Acinetobacter baumannii [4]; greater than 64 µg/mL in the assay on Klebsiella pneumoniae [5]; greater than 512 µg/mL in the assay with Pseudomonas aeruginosa [9]; 64 µg/mL with Escherichia coli [11]. Besides, the MIC is greater than 512 µg/mL with Escherichia coli [14], 32 µg/mL with Acinetobacter baumannii [15], 64 µg/mL with Klebsiella pneumoniae [17] and 32 µg/mL in the assay with Acinetobacter baumannii [18]. The log2FC in the assay with Escherichia coli [3] is given as 3; in the assay on Klebsiella pneumoniae [7], 3; in the assay on Acinetobacter baumannii [8] it was 4. In addition, in the assay on HeLa, the IC50 was greater than 60 µg/mL. In the assay on Acinetobacter baumannii [16], the “fractional inhibitory concentration index (FICI)” value was 0.38.
